Assays:
[1] = target: T1, GDP-loaded KRAS (1-169) G12C, C51S, C80L, C118S (Homo sapiens, UniProt P01116, C118S/C51S/C80L/G12C); assay: Mass Spectrometry Reactivity Assay (MSRA): covalent adduct of compound and KRAS G12C, Percent Modification; type: binding; conditions: for MSRA (% modification) 10 μM 0.25 hr / MSRA (% modification) 10 μM 0.50 hr: 10 μM compound; for MSRA (% modification) 5.0 μM 0.25 hr: 5.0 μM compound
T1 construct: GDP-loaded KRAS (1-169) G12C, C51S, C80L, C118S
In short: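 GDP-loaded KRAS(1-169) G12C/C51S/C80L/C118S at 5 μM in 25 mM Hepes pH 7.5, 200 mM NaCl, 5% glycerol incubated at RT with compound (typically 5 or 10 μM final, 1% DMSO). Quenched in formic acid at 1-60 min; intact-protein LC-TOF MS gives % modification = modified/(modified+unmodified).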

KRAS G12C = KRAS G12C (Homo sapiens, UniProt P01116, G12C); assay: Cell Activity Assay: accumulation of GDP-bound KRAS G12C in MIAPaCa-2 cells (Raf-1 RBD capture, MSD readout); type: cell-based; design: endogenous in cells; host or cells: MIAPaCa-2; conditions: 6 hours, assay limit is 30.00
In short: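 MIAPaCa-2 cells exposed 6 h at 37 °C to 3-fold compound dilutions (0.3% DMSO final), then lysed. Active GTP-KRAS captured on Raf-1 RBD-coated plates, detected with anti-pan-Ras and SULFO-TAG secondary by MSD electrochemiluminescence. Signal normalized to DMSO and maximum inhibition; IC50 from 4-parameter fit.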

| SMILES | MSRA (% modification) 10 μM 0.25 hr [1] [%] | IC50 (KRAS G12C) [µM] | MSRA (% modification) 10 μM 0.50 hr [1] [%] | MSRA (% modification) 5.0 μM 0.25 hr [1] [%] |
| --- | --- | --- | --- | --- |
| C=CC(=O)N1CCN(c2nc(OC[C@@H]3CC(F)(F)CN3C)nc3c(Oc4c(C)ccc5[nH]ncc45)nccc23)CC1 [Example 07B, 1-[4-(2-{[(2S)-4,4-difluoro-1-methylpyrrolidin-2-yl]methoxy}-8-[(5-methyl-1H-indazol-4-yl)oxy]pyrido[3,4-d]pyrimidin-4-yl)piperazin-1-yl]prop-2-en-1-one] | 15 | 6.18 |  |  |
| C=CC(=O)N1CCN(c2ncnc3c(Oc4c(Cl)ccc5[nH]ncc45)cccc23)C[C@@H]1C [Example 07C, 1-[(2S)-4-{8-[(5-chloro-1H-indazol-4-yl)oxy]quinazolin-4-yl}-2-methylpiperazin-1-yl]prop-2-en-1-one] |  | 5.67 | 15 |  |
| C=CC(=O)N1CCN(c2nc(OCc3nncn3C)nc3c(Oc4c(C)ccc5[nH]ncc45)cccc23)CC1 [Example 07F, 1-(4-{8-[(5-methyl-1H-indazol-4-yl)oxy]-2-[(4-methyl-4H-1,2,4-triazol-3-yl)methoxy]quinazolin-4-yl}piperazin-1-yl)prop-2-en-1-one] | 74 | 21.2 | 75 | 22 |
| C=CC(=O)N1CCN(c2nc(OC[C@@H]3CCCN3C)nc3c(Oc4c(Cl)c(F)cc5[nH]ncc45)nc(Cl)cc23)C[C@@H]1C [Example 07G, 1-[(2S)-4-(6-chloro-8-[(5-chloro-6-fluoro-1H-indazol-4-yl)oxy]-2-{[(2S)-1-methylpyrrolidin-2-yl]methoxy}pyrido[3,4-d]pyrimidin-4-yl)-2-methylpiperazin-1-yl]prop-2-en-1-one] | 77 | 0.404 |  |  |
| C=CC(=O)N1CCN(c2nc(OCc3cccnc3)nc3c(Oc4c(Cl)c(F)cc5[nH]ncc45)nccc23)CC1 [Example 07H, 1-(4-{8-[(5-chloro-6-fluoro-1H-indazol-4-yl)oxy]-2-(pyridin-3-ylmethoxy)pyrido[3,4-d]pyrimidin-4-yl}piperazin-1-yl)prop-2-en-1-one] | 77 | 0.285 |  | 66 |
| C=CC(=O)N1CCN(c2nc(Oc3cccnc3C(F)(F)F)nc3c(Oc4c(Cl)c(F)cc5[nH]ncc45)nccc23)CC1 [Example 07I, 1-[4-(8-[(5-chloro-6-fluoro-1H-indazol-4-yl)oxy]-2-{[2-(trifluoro-methyl)pyridin-3-yl]oxy}pyrido [3,4-s]pyrimidin-4-yl)piperazin-1-yl]prop-2-en-1-one] |  | 0.331 |  | 46 |
| C=CC(=O)N1CCN(c2ncnc3c(Oc4c(F)ccc5[nH]ncc45)nccc23)CC1 [Example 08A, 1-(4-{8-[(5-fluoro-1H-indazol-4-yl)oxy]pyrido[3,4-d]pyrimidin-4-yl}piperazin-1-yl)prop-2-en-1-one] |  | 11.1 | 6 |  |
| C=CC(=O)N1CCN(c2nc(OC[C@@H]3CCCN3C)nc3c(Oc4c(C)ccc5[nH]ncc45)nccc23)CC1 [Example 08B, 1-[4-(8-[(5-methyl-1H-indazol-4-yl)oxy]-2-{[(2S)-1-methylpyrrolidin-2-yl]methoxy}pyrido[3,4-d]pyrimidin-4-yl)piperazin-1-yl]prop-2-en-1-one] | 44 | 2.56 |  |  |
| C=CC(=O)N1CCN(c2ncnc3c(Oc4c(Cl)ccc5[nH]ncc45)cccc23)CC1 [Example 08C, 1-(4-{8-[(5-chloro-1H-indazol-4-yl)oxy]quinazolin-4-yl}piperazin-1-yl)prop-2-en-1-one] |  | 2.98 | 29 |  |
| C=CC(=O)N1CCN(c2nc(N3CC[C@H](N(C)C)C3)nc3c(Oc4c(C)ccc5[nH]ncc45)cccc23)CC1 [Example 08E] |  | 10.7 | 25 |  |
| C=CC(=O)N1CCN(c2nc(O[C@H]3Cc4nccn4C3)nc3c(Oc4c(C)ccc5[nH]ncc45)cccc23)CC1 [Example 08F, 1-(4-{2-[(6S)-6,7-dihydro-5H-pyrrolo[1,2-a]imidazol-6-yloxy]-8-[(5-methyl-1H-indazol-4-yl)oxy]quinazolin-4-yl}piperazin-1-yl)prop-2-en-1-one] | 58 | 1.6 | 72 |  |
| C=CC(=O)N1CCN(c2nc(OC[C@H]3COCCN3C)nc3c(Oc4c(Cl)c(F)cc5[nH]ncc45)nc(Cl)cc23)CC1 [Example 08G, 1-[4-(6-chloro-8-[(5-chloro-6-fluoro-1H-indazol-4-yl)oxy]-2-{[(3R)-4-methylmorpholin-3-yl]methoxy}pyrido[3,4-d]pyrimidin-4-yl)piperazin-1-yl]prop-2-en-1-one] | 80 | 0.148 |  |  |
| C=CC(=O)N1CCN(c2nc(OCc3ccccn3)nc3c(Oc4c(Cl)c(F)cc5[nH]ncc45)nccc23)CC1 [Example 08H, 1-(4-{8-[(5-chloro-6-fluoro-1H-indazol-4-yl)oxy]-2-(pyridin-2-ylmethoxy)pyrido[3,4-d]pyrimidin-4-yl}piperazin-1-yl)prop-2-en-1-one] |  | 0.491 |  | 36 |
| C=CC(=O)N1CCN(c2nc(Oc3cccnc3OC)nc3c(Oc4c(Cl)c(F)cc5[nH]ncc45)nccc23)CC1 [Example 08I, 1-(4-{8-[(5-chloro-6-fluoro-1H-indazol-4-yl)oxy]-2-[(2-methoxy-pyridin-3-yl)oxy]pyrido [3,4-d]pyrimidin-4-yl}piperazin-1-yl)prop-2-en-1-one] |  | 0.265 |  | 65 |

Other lines, results leading:

| MSRA (% modification) 10 μM 0.25 hr [1] [%] | IC50 (KRAS G12C) [µM] | MSRA (% modification) 10 μM 0.50 hr [1] [%] | MSRA (% modification) 5.0 μM 0.25 hr [1] [%] | SMILES |
| --- | --- | --- | --- | --- |
|  | 1.87 | 38 |  | C=CC(=O)N1CCN(c2ncnc3c(Oc4c(C)ccc5[nH]ncc45)nc(Cl)cc23)CC1 [Example 09A, 1-(4-{6-chloro-8-[(5-methyl-1H-indazol-4-yl)oxy]pyrido[3,4-d]pyrimidin-4-yl}piperazin-1-yl)prop-2-en-1-one] |
| 43 | 3.1 |  |  | C=CC(=O)N1CCN(c2nc(OC[C@H]3CCCN3C)nc3c(Oc4c(C)ccc5[nH]ncc45)nccc23)CC1 [Example 09B, 1-[4-(8-[(5-methyl-1H-indazol-4-yl)oxy]-2-{[(2R)-1-methylpyrrolidin-2-yl]methoxy}pyrido[3,4-d]pyrimidin-4-yl)piperazin-1-yl]prop-2-en-1-one] |
|  | 2.87 | 34 |  | C=CC(=O)N1CCN(c2ncnc3c(Oc4c(Cl)ccc5[nH]ncc45)cccc23)[C@@H](C)C1 [Example 09C, 1-[(3S)-4-{8-[(5-chloro-1H-indazol-4-yl)oxy]quinazolin-4-yl}-3-methylpiperazin-1-yl]prop-2-en-1-one] |
|  | 7.4 | 24 |  | C=CC(=O)N1CCN(c2nc(N3CC[C@@H](N(C)C)C3)nc3c(Oc4c(C)ccc5[nH]ncc45)cccc23)CC1 [Example 09E, 1-(4-{2-[(3R)-3-(dimethylamino)pyrrolidin-1-yl]-8-[(5-methyl-1H-indazol-4-yl)oxy]quinazolin-4-yl}piperazin-1-yl)prop-2-en-1-one] |
| 64 | 3 | 75 |  | C=CC(=O)N1CCN(c2nc(OCCc3ncc[nH]3)nc3c(Oc4c(C)ccc5[nH]ncc45)cccc23)CC1 [Example 09F, 1-(4-{2-[2-(1H-imidazol-2-yl)ethoxy]-8-[(5-methyl-1H-indazol-4-yl)oxy]quinazolin-4-yl}piperazin-1-yl)prop-2-en-1-one] |
| 81 | 0.239 | 83 | 78 | C=CC(=O)N1CCN(c2nc(OC[C@@H]3CCCN3C)nc3c(Oc4c(Cl)c(C)cc5[nH]ncc45)nccc23)CC1 [Example 09H, 1-[4-(8-[(5-chloro-6-methyl-1H-indazol-4-yl)oxy]-2-{[(2S)-1-methylpyrrolidin-2-yl]methoxy}pyrido[3,4-d]pyrimidin-4-yl)piperazin-1-yl]prop-2-en-1-one] |
|  | 0.398 |  | 44 | C=CC(=O)N1CCN(c2nc(Oc3cnn(C)c3)nc3c(Oc4c(Cl)c(F)cc5[nH]ncc45)nccc23)CC1 [Example 09I, 1-(4-{8-[(5-chloro-6-fluoro-1H-indazol-4-yl)oxy]-2-[(1-methyl-1H-pyrazol-4-yl)oxy]pyrido [3,4-d]pyrimidin-4-yl}piperazin-1-yl)prop-2-en-1-one] |
|  | 7.5 | 10 |  | C=CC(=O)N1CCN(c2ncnc3c(Oc4c(C)ccc5[nH]ncc45)nccc23)[C@@H](C)C1 [Example 10A, 1-[(3S)-3-methyl-4-{8-[(5-methyl-1H-indazol-4-yl)oxy]pyrido[3,4-d]pyrimidin-4-yl}piperazin-1-yl]prop-2-en-1-one] |
| 60 | 13.4 |  |  | C=CC(=O)N1CCN(c2nc(OC[C@@H]3CCN(C)C3)nc3c(Oc4c(C)ccc5[nH]ncc45)nccc23)CC1 [Example 10B, 1-[4-(8-[(5-methyl-1H-indazol-4-yl)oxy]-2-{[(3R)-1-methylpyrrolidin-3-yl]methoxy}pyrido[3,4-d]pyrimidin-4-yl)piperazin-1-yl]prop-2-en-1-one] |
|  | 5.21 | 27 |  | C=CC(=O)N1CCN(c2ncnc3c(Oc4c(C)ccc5[nH]ncc45)cccc23)[C@@H](C)C1 [Example 10C, 1-[(3S)-3-methyl-4-{8-[(5-methyl-1H-indazol-4-yl)oxy]quinazolin-4-yl}piperazin-1-yl]prop-2-en-1-one] |
